Data reported in patent US20240010639A1, “TRIAZINE DIONE DERIVATIVE, PREPARATION METHOD THEREFOR AND APPLICATION THEREOF IN MEDICINE” (Jiangsu Hengrui Pharmaceuticals Co., Ltd., priority 2020, published 2024).
Like-named read-outs stand apart in the source and are kept apart here.

Columns and labels:
[1] = Pharmacokinetic evaluation in cynomolgus monkeys; assay type: in vivo; settings: for AUC / half-life / Cmax / MRT / Vd/F / CL/F: both (Example 16), male (MYK-461), cynomolgus monkey, plasma; for AUC: read-out: Area under curve AUC; for half-life: read-out: Half-life T1/2 (converted); for Cmax: read-out: Plasma concentration Cmax; for MRT: read-out: Residence time MRT; for Vd/F: read-out: Apparent volume of distribution Vz/F; for CL/F: read-out: Clearance CL/F
Description: With cynomolgus monkeys as test animals, the plasma concentrations of the test compounds were measured by LC/MS/MS at different time points after intragastric administration and intravenous injection. The pharmacokinetic performance of the compound disclosed herein was studied in cynomolgus monkeys and its pharmacokinetic profile was evaluated.
Pharmacokinetics of the compound of Example 16 in cynomolgus monkeys: 8 cynomolgus monkeys, an equal number of males and females, divided into 2 groups of 4, provided by Shanghai Medicilon Inc.
Pharmacokinetics of compound MYK-461 in cynomolgus monkeys: 6 cynomolgus monkeys, male, divided into 2 groups of 3, provided by Shanghai Medicilon Inc.
A certain amount of the compound of Example 16 was measured out, and 5% DMSO, 30% PG, 30% PEG400 and 35% normal saline were added to prepare a clear solution.
A certain amount of compound MYK-461 was measured out, and 5% DMSO, 20% PG, 20% PEG400 and 55% normal saline were added to prepare a clear solution.
Cynomolgus monkeys were fasted overnight and then given compounds by intragastric administration and intravenous injection at doses of 2 mg/kg and 0.5 mg/kg, respectively, and at volumes of 5 mL/kg and 2 mL/kg, respectively.
1.0-mL blood samples were collected from the forelimb veins of the animals in the intragastric administration group before administration and 0.25 h, 0.5 h, 1h, 2 h, 4 h, 6 h, 8 h, 12 h and 24 h after administration, placed into EDTA-K2 anticoagulant tubes, and centrifuged at 10,000 rpm for 5 min (4° C.), and plasma was isolated within 1 h and stored at −80° C. before analysis. The blood collection to centrifugation process was performed under ice bath conditions. Three hours after administration, feeding was resumed, and ad libitum access to water was given.
Blood samples were collected from the animals in the intravenous injection group before administration and 5 min, 0.25 h, 0.5 h, 1.0 h, 2.0 h, 4.0 h, 8.0 h, 12.0 h and 24.0 h after administration and processed as in the intragastric administration group.
Determination of plasma concentrations in cynomolgus monkeys after intragastric administration and intravenous injection of different concentrations of test compounds: 20 μL of cynomolgus monkey plasma at each time point post-dose was mixed with an internal standard solution (internal standard for the compound of Example 16: 10 ng/mL verapamil; internal standard for compound MYK-461: 100 ng/mL camptothecin) and 400 μL of methanol; the mixture was vortexed for 1 min and centrifuged at 18,000 g for 7 min, and 200 μL of the supernatant was transferred to a 96-well plate: 2 μL of the supernatant was taken for LC/MS/MS analysis.

[2] = Identification of reactive metabolites (GSH conjugates) in human liver microsomes; assay type: in vitro ADME; settings: for Identification of reactive metabolites: Result: human liver microsomes 1 mg/mL, test compound 30 μM, GSH 5 mM, NADPH 1.0 mM, 60 min, 37° C.; for glutathione (GSH) conjugate associated with the compound detected (in words): human liver microsomes, GSH trapping
Description: The identification of reactive metabolites of the compound disclosed herein in human liver microsomes was carried out using the experimental method below:
• 1. Phosphate-buffered saline (purchased from Shanghai Sangon) • 2. NADPH (ACROS, A2646-71-1) • 3. Human liver microsome (Corning Gentest, Cat No. 452161, Lot No. 905002) • 4. Thermo UHPLC-Q-Exactive Orbitrap mass spectrometer (Thermo Fisher Scientific) • 5. Acquity BEH C18 column, 2.1×100 mm, 1.7 μm (Waters, USA) • 6. Positive control compound (diclofenac).
• 1. Preparation of test compound solutions: A proper amount of a test compound was precisely measured out and dissolved in a proper amount of DMSO. After the solution was well mixed, a 30 mM stock solution was obtained. A […] stock solution was 10-fold diluted with 50% acetonitrile/water (v/v) to obtain a 3.0 mM working solution 1. The 3.0 mM working solution 1 was 10-fold diluted with PBS to obtain a 300 μM working solution 2, and the solution was stored at 4° C. before use. • 2. Preparation of phosphate-buffered saline: Proper amounts of K2HPO4 and KH2PO4 were measured out and dissolved in 4 L of pure water to prepare a 100 mM buffer, and the pH was then adjusted with phosphoric acid or sodium hydroxide to 7.4. • 3. Preparation of liver microsome solutions: Proper amounts of liver microsome stock solutions of various species (20 mg/mL) were measured out and diluted with the 100 mM phosphate-buffered saline (pH 7.4) to prepare 1.43 mg/mL microsome solutions. • 4. Preparation of NADPH cofactor solution: Proper amounts of NADPH and magnesium chloride were measured out and dissolved in a proper amount of the 100 mM phosphate-buffered saline (pH 7.4) so the concentrations of NADPH and magnesium chloride were 10 mM and 30 mM, respectively, and the solutions were stored for later use. • 5. Preparation of glutathione (GSH) solution: A proper amount of glutathione was measured out and dissolved in a proper amount of the 100 mM phosphate-buffered saline (pH 7.4) so the concentration of GSH was 50 mM, and the solution was stored for later use. • 6. The incubation system is shown below:
To a 1.5 mL centrifuge tube, 20 μL of the 300 μM working solution 2 was precisely transferred and 140 μL of a 1.43 mg/mL liver microsome solution was then added so the concentration of liver microsomal protein in the incubation system was 1 mg/mL. […] The collected data were processed and analyzed using Xcalibur software. According to the exact molecular weight, tandem mass spectrometry fragments were analyzed to see if the compound disclosed herein would be metabolically activated to produce reactive metabolites.

[3] = intravenous injection, 0.5 mg/kg
[4] = po, intragastric administration, 2 mg/kg

Row | SMILES | T1/2 comparison (in words) [1] | absorption profile (in words) [1] | AUC [1, 3] | half-life [1, 3] | Cmax [1, 3] | MRT [1, 3] | Vd/F [1, 4] | AUC [1, 4] | CL/F [1, 4] | half-life [1, 4] | Cmax [1, 4] | MRT [1, 4] | Apparent volume of distribution Vz/F [1, 3] | Clearance CL/F [1, 3] | Identification of reactive metabolites: Result [2] | glutathione (GSH) conjugate associated with the compound detected (in words) [2]
1 | Cc1ccc(F)c([C@H](C)Nc2nc(=O)n(C3CCOCC3)c(=O)[nH]2)c1 [Example 16, (S)-6-((1-(2-Fluoro-5-methylphenyl)ethyl)amino)-3-(tetrahydro-2H-pyran-4-yl)-1,3,5-triazine-2,4(1H,3H)-dione] | significantly shorter T1/2 | good absorption profile | 1020 ng·h/mL | 5.6 h | 1660 ng/mL | 6.8 h | 10.3 L/kg | 2400 ng·h/mL | 11.8 mL/min/kg | 10.3 h | 553 ng/mL | 12.5 h | 3.579 L/kg | 7.46 mL/min/kg | Negative | no glutathione (GSH) conjugate
2 | CC(C)n1c(=O)cc(N[C@@H](C)c2ccccc2)[nH]c1=O [MYK-461, reference compound] | longer T1/2 | – | 976 ng·h/mL | 27.3 h | 222 ng/mL | 42.8 h | 11.4 L/kg | 3520 ng·h/mL | 2.34 mL/min/kg | 78.3 h | 563 ng/mL | 114 h | 8.203 L/kg | 5.02 mL/min/kg | Positive | detected
